Values of other authors, collected in patent US20070028401A1, “Powdered preparations containing a mixture of 2,4,6-trianilino-p-(carbo-2'-ethylhexyl-1'-oxi)-1,3,5-triazine and diethylamino-hydroxybenzoyl-hexyl-benzoate” (BASF Aktiengesellschaft, priority 2003, published 2007).
Where two headings read alike, the source gives them in different places.

SMILES	absorbance coefficient (at 314 nm)	absorbance coefficient (at 354 nm)
CCCCC(CC)COC(=O)c1ccc(Nc2nc(Nc3ccc(C(=O)OCC(CC)CCCC)cc3)nc(Nc3ccc(C(=O)OCC(CC)CCCC)cc3)n2)cc1 (centres unmarked) [Uvinul T150, 2,4,6-Trianilino-p-(carbo-2′-ethylhexyl-1′-oxy)-1,3,5-triazine]	> 1500	
CCCCCCOC(=O)c1ccccc1C(=O)c1ccc(N(CC)CC)cc1O [Uvinul® A Plus, Diethylamino hydroxybenzoyl hexyl benzoate]		940
